The source made the active and inactive calls.
Columns and labels:
[1] = target: T1, Corticotropin-releasing factor receptor 2/Corticotropin-releasing factor-binding protein (Homo sapiens, UniProt P24387+Q13324); experiment: activators of CRF receptor 2 with binding protein – uHTS hits, confirmation (AID 602473); assay type: functional; settings: read-out: EC50_Mean
T1 sequence (Q13324 whole entry): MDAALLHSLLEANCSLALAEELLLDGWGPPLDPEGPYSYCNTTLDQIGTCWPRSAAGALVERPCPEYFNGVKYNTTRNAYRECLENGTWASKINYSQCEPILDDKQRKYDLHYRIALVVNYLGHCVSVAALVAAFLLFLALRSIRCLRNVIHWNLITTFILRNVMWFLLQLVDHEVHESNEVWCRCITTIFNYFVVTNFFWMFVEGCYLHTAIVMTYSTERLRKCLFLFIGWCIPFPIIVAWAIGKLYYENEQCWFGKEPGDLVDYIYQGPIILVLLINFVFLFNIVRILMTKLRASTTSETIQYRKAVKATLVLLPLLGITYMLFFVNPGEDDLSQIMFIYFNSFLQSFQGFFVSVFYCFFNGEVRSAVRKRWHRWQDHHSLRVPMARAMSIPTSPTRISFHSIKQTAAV
T1 sequence (P24387 whole entry): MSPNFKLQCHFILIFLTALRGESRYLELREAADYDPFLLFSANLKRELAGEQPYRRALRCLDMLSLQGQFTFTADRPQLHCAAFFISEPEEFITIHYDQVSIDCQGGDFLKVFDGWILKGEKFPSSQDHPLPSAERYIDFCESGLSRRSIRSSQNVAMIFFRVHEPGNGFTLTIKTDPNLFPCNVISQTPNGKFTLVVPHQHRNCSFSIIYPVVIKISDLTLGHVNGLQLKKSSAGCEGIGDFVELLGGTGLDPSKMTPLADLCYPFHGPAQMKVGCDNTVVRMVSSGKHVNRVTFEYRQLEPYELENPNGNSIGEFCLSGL

[2] = inhibitors of SNCA 5'UTR-driven reporter translation, confirmation, H4 neuroglioma cells, luminescence (AID 1988); assay type: functional, cell-based
[3] = Luminescence Cell-Based Dose Response HTS to Identify Inhibitors of 5'UTR Stem-Loop Driven Prion Protein mRNA Translation in H4 Neuroglioblastoma Cells. [Related pubchem assays: 1827 (Project Summary), 1813 (Primary HTS)]; assay type: functional
[4] = inhibitors of firefly luciferase expression or activity, dose response, H4 neuroglioma cells, luminescence (AID 1990); assay type: functional, cell-based
Cytochrome P450 2C9 = Cytochrome P450 2C9 (Homo sapiens, UniProt P11712)
Cytochrome P450 2C19 = Cytochrome P450 2C19 (Homo sapiens, UniProt P33261); experiment: Cytochrome panel assay with activity outcomes. Panel member name: p450-cyp2c19 Compounds with AC50 equal or less than 10 uM are considered active; assay type: functional
Cytochrome P450 3A4 = Cytochrome P450 3A4 (Homo sapiens, UniProt P08684);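 also: CYP3A4 tested as one member of a cytochrome P450 panel screen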
[5] = cytotoxicity toward NIH3T3 fibroblasts, dose response, counter-screen, cell-based, ATP luminescence, mouse fibroblasts (AID 2010); assay type: functional;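 also: cells exposed to compound for about 90 hours before reading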
[6] = inhibitors of intracellular T. cruzi replication, confirmation, NIH3T3 host cells, beta-gal luminescence (AID 2044); assay type: functional, cell-based;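 also: intracellular parasites grown in NIH/3T3 mouse fibroblasts as host cells; luminescent beta-galactosidase reporter signal from transgenic T. cruzi replicating inside host cells; inhibitors lower the luminescence signal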

Sequence of Cytochrome P450 2C9 (P11712 whole entry): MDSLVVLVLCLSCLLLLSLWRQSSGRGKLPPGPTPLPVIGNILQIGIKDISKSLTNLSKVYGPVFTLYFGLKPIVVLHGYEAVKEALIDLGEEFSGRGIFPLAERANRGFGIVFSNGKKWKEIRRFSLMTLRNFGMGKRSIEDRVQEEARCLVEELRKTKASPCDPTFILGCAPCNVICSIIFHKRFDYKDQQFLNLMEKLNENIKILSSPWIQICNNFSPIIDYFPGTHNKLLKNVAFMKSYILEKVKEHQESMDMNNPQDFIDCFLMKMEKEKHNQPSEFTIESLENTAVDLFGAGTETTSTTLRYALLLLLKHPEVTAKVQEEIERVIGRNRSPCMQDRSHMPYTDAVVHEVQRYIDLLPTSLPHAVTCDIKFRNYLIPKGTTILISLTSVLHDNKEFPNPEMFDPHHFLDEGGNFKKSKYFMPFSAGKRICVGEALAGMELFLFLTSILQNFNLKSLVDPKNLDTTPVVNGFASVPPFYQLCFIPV
Sequence of Cytochrome P450 2C19 (P33261 whole entry): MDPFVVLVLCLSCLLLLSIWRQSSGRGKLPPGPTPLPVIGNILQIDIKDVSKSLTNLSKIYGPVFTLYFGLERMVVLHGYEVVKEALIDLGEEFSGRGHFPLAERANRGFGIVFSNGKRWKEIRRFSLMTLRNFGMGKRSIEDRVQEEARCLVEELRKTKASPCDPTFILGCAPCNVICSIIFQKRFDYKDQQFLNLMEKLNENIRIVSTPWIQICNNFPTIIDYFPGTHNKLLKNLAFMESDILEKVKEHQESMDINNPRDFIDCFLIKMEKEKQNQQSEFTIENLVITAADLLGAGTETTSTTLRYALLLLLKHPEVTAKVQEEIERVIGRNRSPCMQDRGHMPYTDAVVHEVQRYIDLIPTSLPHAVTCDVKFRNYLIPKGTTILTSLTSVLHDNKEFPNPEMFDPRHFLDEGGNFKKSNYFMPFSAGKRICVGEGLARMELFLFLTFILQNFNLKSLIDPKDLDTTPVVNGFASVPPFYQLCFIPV
Sequence of Cytochrome P450 3A4 (P08684 whole entry): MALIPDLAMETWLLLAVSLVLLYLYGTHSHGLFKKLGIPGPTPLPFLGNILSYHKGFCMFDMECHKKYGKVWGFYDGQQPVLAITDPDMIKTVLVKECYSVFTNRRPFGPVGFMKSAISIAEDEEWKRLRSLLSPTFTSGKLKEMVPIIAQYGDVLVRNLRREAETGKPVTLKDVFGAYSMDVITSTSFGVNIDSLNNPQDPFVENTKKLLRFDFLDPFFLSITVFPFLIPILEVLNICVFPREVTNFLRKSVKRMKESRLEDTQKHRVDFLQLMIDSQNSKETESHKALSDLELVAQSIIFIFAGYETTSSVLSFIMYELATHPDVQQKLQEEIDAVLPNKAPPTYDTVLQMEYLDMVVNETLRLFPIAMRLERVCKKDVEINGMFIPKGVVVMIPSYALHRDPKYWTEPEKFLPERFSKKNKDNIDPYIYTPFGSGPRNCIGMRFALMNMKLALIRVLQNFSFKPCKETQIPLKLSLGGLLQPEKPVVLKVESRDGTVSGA

## Cc1ccc(SCc2ccc(C(=O)Nc3ccccc3Br)cc2)cc1
[1]
  EC50: > 53 µM (inactive)

## Cc1ccc2cc(C(c3nnnn3C3CCCC3)N3CCN(c4ccc(F)cc4)CC3)c(O)nc2c1 (centres undefined)
[2]
  EC50: 106 µM (active)
[3]
  EC50: 113 µM (active)
[4]
  EC50: 20.6 µM (active)

## COc1ccc(NC(=O)c2cc(-c3cccnc3)nc3ccc(C)cc23)cc1OC
Cytochrome P450 2C9
  AC50: 7.08 µM (inconclusive)
Cytochrome P450 2C19; read-out: AC50
  AC50: 10 µM (inconclusive)

## COc1ccc(/C=N/NC(=O)C2CCN(c3ncc(C(F)(F)F)cc3Cl)CC2)cc1
Cytochrome P450 3A4
  AC50: 11.2 µM (inconclusive)

## COc1ccc2[nH]c(C(O)(Cc3cccnc3)Cc3cccnc3)cc2c1
[5]
  EC50: > 60 µM (inconclusive)
[6]
  EC50: 2.42 µM (active)

## CC1(C)C(=O)OC(c2cccn2-c2ccc([N+](=O)[O-])cc2)C2(CCCCC2)C1=O (centres undefined)
[1]
  EC50: 4.72 µM (active)

## CCOC(=O)CC(=O)CSc1nc(-c2cccnc2)cc(C)c1C#N
Cytochrome P450 2C19; read-out: AC50
  AC50: 8.91 µM (inconclusive)
Cytochrome P450 3A4
  AC50: 11.2 µM (inconclusive)

## Cc1ccccc1C(=O)Nc1cccc(NC(=O)Cn2cnc3c(=O)n(C)c(=O)n(C)c32)c1
[2]
  EC50: > 120 µM (not active)
[3]
  EC50: 12.9 µM (active)
[4]
  EC50: 26.9 µM (active)

## CCCCc1nc(NCC2CCCO2)c(C#N)c2c1COC(C)(C)C2 (centres undefined)
[2]
  EC50: > 120 µM (not active)
[3]
  EC50: > 120 µM (not active)
[4]
  EC50: 28 µM (active)

## O=C(OCc1ccccc1Cl)c1cc([N+](=O)[O-])ccc1N1CCOCC1
[2]
  EC50: 36.1 µM (active)
[3]
  EC50: > 120 µM (not active)
[4]
  EC50: 23.3 µM (active)

## CCOc1ccc(S(=O)(=O)Nc2nc3ccccc3nc2Nc2ccc(N3CCOCC3)cc2)cc1
[1]
  EC50: > 53 µM (inactive)

## N#Cc1ccc(CN2CCCC3(CCN(C(=O)c4cccc(F)c4)CC3)C2)cc1
Cytochrome P450 2C9
  AC50: 39.8 µM (inconclusive)
Cytochrome P450 3A4
  AC50: 10 µM (inconclusive)

## CN(C)CCCOC(=O)c1ccc(Cl)cc1Cl
[5]
  EC50: > 60 µM (not active)
[6]
  EC50: 2.56 µM (active)

## CCCOC(=O)c1ccc(NC(=O)c2cn(CC)c3nc(C)ccc3c2=O)cc1
Cytochrome P450 2C9
  AC50: 15.8 µM (inconclusive)
Cytochrome P450 2C19; read-out: AC50
  AC50: 20 µM (inconclusive)

## O=c1c(-c2ccc(Cl)cc2)nc2cncnc2n1Cc1ccc(F)cc1
Cytochrome P450 3A4
  AC50: 15.8 µM (inconclusive)

## Cc1nc2cnc(Oc3cccc(Cl)c3)nc2n(C[C@H]2CCCO2)c1=O
Cytochrome P450 3A4
  AC50: 15.8 µM (inconclusive)

## COc1ccc(C2(C)NC(=O)N(CC(=O)c3cc(C)n(C4CC4)c3C)C2=O)cc1 (centres undefined)
[1]
  EC50: 5.74 µM (active)

## CC(C)(Oc1ccc(Cl)cc1)C(=O)Nc1cccnc1
Cytochrome P450 3A4
  AC50: 17.8 µM (inconclusive)

## N#C/C(=C(/O)c1cccc(F)c1)c1nc2ccccc2s1
[1]
  EC50: > 53 µM (inactive)

## CCCOc1ccccc1N=C(Nc1nc(C)cc(C)n1)NS(=O)(=O)c1ccc(C)cc1
[2]
  EC50: > 120 µM (not active)
[3]
  EC50: > 120 µM (not active)
[4]
  EC50: 14.6 µM (active)

## Cc1cc(Oc2ccccc2)nc(-c2ccccc2)n1
Cytochrome P450 2C9
  AC50: 12.6 µM (inconclusive)

## COc1ccc(NC(=O)/C(=C\c2cc(OC)c(OC)cc2[N+](=O)[O-])NC(=O)c2ccccc2)cc1
Cytochrome P450 2C19; read-out: AC50
  AC50: 20 µM (inconclusive)
Cytochrome P450 3A4
  AC50: 0.891 µM (inconclusive)

## O=C(Nc1ccc(Br)cc1Cl)c1ccc2c(=O)n3c(nc2c1)CCC3
[1]
  EC50: 4.04 µM (active)

## COc1ncc2nc(CCc3ccccc3)c(=O)n(CCc3ccccc3)c2n1
Cytochrome P450 2C9
  AC50: 2 µM (inconclusive)

## C=CCOc1c(Cl)cc(CNCCCN2CCOCC2)cc1OC
[5]
  EC50: 20.2 µM (active)
[6]
  EC50: 0.125 µM (active)

## Cc1cc(C)n(CC(=O)N/N=C/c2ccco2)n1
Cytochrome P450 2C19
  AC50: inconclusive

## COc1cc2c(cc1NC(=O)Nc1ccc(F)cc1)oc1ccccc12
[5]
  EC50: > 30 µM (not active)
[6]
  EC50: 1.94 µM (active)

## Cc1c(CC(C)(C)C(=O)O)n(Cc2ccc(Cl)cc2)c2ccc(F)cc12
Cytochrome P450 2C19
  AC50: inconclusive
Cytochrome P450 3A4
  AC50: 25.1 µM (inconclusive)

## OCCCCNCc1ccc(OCc2ccccc2Cl)cc1
Cytochrome P450 2C19; read-out: AC50
  AC50: 25.1 µM (inconclusive)
Cytochrome P450 3A4
  AC50: 25.1 µM (inconclusive)

## COc1cc([N+](=O)[O-])ccc1-c1ccc(/C=N/NC(=O)OC(C)(C)C)o1
[1]
  EC50: 6.43 µM (active)

## COc1ccc(NC(=O)N2CCCC3(CCN(C(=O)c4c(C)noc4C)CC3)C2)cc1
Cytochrome P450 3A4
  AC50: 25.1 µM (inconclusive)

## Cc1cc(C)cc(N2C(=O)/C(=C/NC3CCS(=O)(=O)C3)c3ccccc3C2=O)c1 (centres undefined)
Cytochrome P450 2C19; read-out: AC50
  AC50: 39.8 µM (inconclusive)

## Cc1cc(S(=O)(=O)NCCN(C)C)c(C)s1
Cytochrome P450 2C9
  AC50: 0.0447 µM (inconclusive)
Cytochrome P450 2C19; read-out: AC50
  AC50: 31.6 µM (inconclusive)

## Cc1cc(C(=O)OC2CCOC2=O)c2ccccc2n1 (centres undefined)
Cytochrome P450 2C19; read-out: AC50
  AC50: 28.2 µM (inconclusive)

## CN(C)CCNC(=O)c1csc(Nc2cccc3ccccc23)n1
[2]
  EC50: 17.1 µM (active)
[3]
  EC50: 23.6 µM (active)
[4]
  EC50: > 120 µM (not active)

## Cc1cc(C)c2cc(C#N)c(NCCOC(=O)c3ccccc3C)nc2c1
Cytochrome P450 2C19; read-out: AC50
  AC50: 1.78 µM (inconclusive)

## CCN(CC)CCN(C(=O)CCOc1ccccc1)c1nc2c(F)cc(F)cc2s1
[5]
  EC50: > 60 µM (inconclusive)
[6]
  EC50: 1.02 µM (active)

## O=c1c(-c2cccs2)nc2cncnc2n1C1CC1
Cytochrome P450 2C9
  AC50: 15.8 µM (inconclusive)
Cytochrome P450 3A4
  AC50: 5.01 µM (inconclusive)

## COC(=O)[C@@]1(Cc2ccc(OC)cc2)[C@@H]2C(=CC(=O)[C@H]2CC(=O)C(=O)N2CCCC2)CN1C(=O)c1ccccc1
Cytochrome P450 2C19; read-out: AC50
  AC50: 39.8 µM (inconclusive)
Cytochrome P450 3A4
  AC50: 2 µM (inconclusive)

## CCC/C=C(\CCC)C(NC(=O)OCC(C)C)c1ccc(C(=O)OC)cc1 (centres undefined)
Cytochrome P450 2C19; read-out: AC50
  AC50: 25.1 µM (inconclusive)

## C[C@@H](C(=O)Nc1ccc2ccccc2c1)[C@H]1C[C@]1(C)[C@H](NC(=O)Oc1ccc(F)cc1)c1ccccc1
Cytochrome P450 2C9
  AC50: 31.6 µM (inconclusive)

## COc1ccc(-c2oc3cc(OC)c(O)c(OC)c3c(=O)c2OC)cc1O
[2]
  EC50: 13.6 µM (active)
[3]
  EC50: 12.6 µM (active)
[4]
  EC50: 11.3 µM (active)

## COCCn1c(=O)c(-c2cccs2)nc2cnc(N3CCN(C)CC3)nc21
Cytochrome P450 3A4
  AC50: 31.6 µM (inconclusive)

## CCOc1ccc(CNC(=O)C2CCC(=O)N2C2CCCC2)cc1OC (centres undefined)
Cytochrome P450 2C9
  AC50: 28.2 µM (inconclusive)
Cytochrome P450 2C19; read-out: AC50
  AC50: 22.4 µM (inconclusive)
Cytochrome P450 3A4
  AC50: 25.1 µM (inconclusive)

## Nc1cccc2cc(S(=O)(=O)Nc3ccc(C(=O)O)cc3)ccc12
Cytochrome P450 2C9
  AC50: 7.94 µM (inconclusive)
Cytochrome P450 2C19; read-out: AC50
  AC50: 3.16 µM (inconclusive)

## CCOC(=O)c1sc(NC(=O)c2cccc(S(=O)(=O)N3c4ccccc4CC3C)c2)cc1C (centres undefined)
[2]
  EC50: 6.96 µM (active)
[3]
  EC50: 13.6 µM (active)
[4]
  EC50: 10.1 µM (active)

## COc1ccccc1-c1ccc2ncnc(Nc3ccccc3)c2c1
Cytochrome P450 2C9
  AC50: 1.26 µM (inconclusive)

## COc1ccccc1NC(=O)CCSc1nnnn1C
[1]
  EC50: > 53 µM (inactive)

## Nc1ccc(S(=O)(=O)c2ccc(NCN3C(=O)NC(=O)C(=O)C3=O)cc2)cc1 [ALLANTODAPSONE]
Cytochrome P450 2C19
  AC50: inconclusive

## COc1ccccc1-c1nc(N(C)C)c2ccccc2n1
Cytochrome P450 3A4
  AC50: 15.8 µM (inconclusive)

## Cc1cc(C)c(S(=O)(=O)c2ccc(Cl)cc2C)c(Cl)n1
[5]
  EC50: 35.9 µM (active)
[6]
  EC50: 0.336 µM (active)

## c1ccc(COc2cccc(CNCc3cccnc3)c2)cc1
[5]
  EC50: > 30 µM (not active)
[6]
  EC50: 8.34 µM (active)

## COc1cccc(-c2ccc3ncnc(NCc4cccnc4)c3c2)c1
Cytochrome P450 2C9
  AC50: 1.58 µM (inconclusive)

## CN(C)Cc1ccccc1-c1nc(N(C)Cc2ccco2)c2ccccc2n1
Cytochrome P450 3A4
  AC50: 1.58 µM (inconclusive)

## c1ccc(Oc2cccc(OCCCCSc3ncccn3)c2)cc1
[1]
  EC50: > 53 µM (inactive)

## CC(C)=CCC/C(C)=C/CO/N=C1/C[C@@H](O)[C@@H](O)[C@@H]2[C@H]3C(=O)N(c4ccc(F)cc4F)C(=O)[C@@H]3CC[C@@H]12
Cytochrome P450 3A4
  AC50: 3.98 µM (inconclusive)

## c1ccc(CNc2nc(-c3ccoc3)nc3ccccc23)cc1
Cytochrome P450 2C19; read-out: AC50
  AC50: 20 µM (inconclusive)

## CSc1cccc(NC(=S)N(Cc2ccccc2)Cc2cccnc2)c1
[5]
  EC50: > 60 µM (not active)
[6]
  EC50: 0.653 µM (active)

## COc1ccc(Oc2ncc3ncc(=O)n(C[C@H]4CCCO4)c3n2)cc1
Cytochrome P450 2C9
  AC50: 20 µM (inconclusive)

## CCN(CC)CC#CCOC(=O)[C@@](O)(c1ccccc1)C1CCCCC1 [ESOXYBUTYNIN]
Cytochrome P450 2C9
  AC50: 15.8 µM (inconclusive)

## COc1ccc(Cc2nn3c(-c4ccccc4Br)nnc3s2)cc1
[2]
  EC50: > 120 µM (not active)
[4]
  EC50: > 120 µM (not active)
